Results as given in patent US20240067932A1, “METHODS AND COMPOSITIONS FOR GENERATING HEMOGENIC ENDOTHELIAL CELLS FROM PLURIPOTENT STEM CELLS” (Trailhead Biosystems Inc., priority 2022, published 2024).

Columns and labels:
Assay type in all cases: cell-based, human
[1] = test system: early mesoderm progenitors; test: 8-factor HD-DoE experiments optimized for maximum GATA2 expression (qPCR, partial least squares models)
[2] = test system: early mesoderm progenitors; test: Factor criticality / dynamic profile analysis of gene expression on removal of a finalized effector; design: expression level of GATA2 / expression level of TAL1 / expression level of CD44 / expression level of KDR / expression level of CD34 / expression level of CD31: unit not given here
[3] = test system: early mesoderm progenitors; test: 8-factor HD-DoE experiments optimized for maximum GATA2 expression (qPCR, partial least squares models); settings: for factor contribution (maximum expression of GATA2): first model, FIG. 2, factors Forskolin, VEGF, FGF2, Albumax, SUN1162, Hydrocortisone, SB341542, Resveratrol, 3 days after stage 1
Source text: The early mesoderm progenitors were used for further differentiation along the endothelial lineage using a High-Dimensional Design of Experiments (HD-DoE) approach to simultaneously test multiple process inputs (e.g., small molecule agonists or antagonists) on output responses, such as gene expression. Based on predicted conditions that maximize expression of hemogenic endothelial enriched genes such as CD31, CD34, CD143, CD309, GATA2, Fill and RUNX1, vWF, a complex recipe was developed for generating differentiated hemogenic endothelial cells from the early mesoderm progenitors, composed of 8 agents as shown below in Table 1:
First, undifferentiated iPSC were grown for 48 h in CDM2 media containing 6 uM CHIR99021 (referred to herein as stage 1). Then stage 2 media was engineered. The basis of this was an 8-factor HD-DoE experiment with focus on differentiation of cells toward the hemogenic endothelial lineage for an additional 3 days after termination of stage 1 treatment. To test the effectors, 48 different combinations of effectors generated using Design-of-Experiments compression through D-optimality were robotically prepared. The effector combinations were prepared in a basal media and were subsequently added to the cells, which were then allowed to differentiate. Three days later, RNA extraction was performed, and gene expression was obtained using quantitative PCR analysis. The data were normalized and modeled using partial least squares regression analysis to the effector design, resulting in the generation of gene-specific models, which after model tuning for maximal Q2 predictive power, provided explanation of the effectors ability to control the expression of individual genes, combinatorically, and individually. Solutions within the tested space could then be explored to address desirability. For stage 2, conditions were created inducing the expression of GATA2, a transcription factor identified as a master regulator of hematopoiesis. GATA2 promotes the generation of HECs and facilitates endothelial-to-hematopoietic transition (EHT). GATA2 also suppresses cardiac differentiation at the mesoderm stage, directing cells to a hematopoietic fate. Optimizing for maximal expression of GATA2 led to a robust solution. […] In this model, high levels of KDR, important receptor for VEGF signaling, were observed. […] This model was derived from initial testing of eight factors including: Forskolin, VEGF, FGF2, Albumax, SUN1162, Hydrocortisone, SB341542, and Resveratrol. […] Factors with low contribution were excluded.

[4] = second model, FIG. 3, factors CHIR, VEGF, FGF2, TTNBP, AGN194310, Y27632, Thymosin-β4, heparin
[5] = model FIG. 10 (XAV939, VEGF, FGF2, L-ascorbic acid kept), factor present
[6] = model FIG. 10, named factor removed
[7] = fourth model, FIG. 5, factors VEGF, FGF2, Sphingosine 1 phosphate, V11298, Pyrintegrin, Erythropoietin, L-ascorbic acid, XAV939
[8] = model FIG. 7 (VEGF, Forskolin, FGF2), factor present
[9] = model FIG. 7, named factor removed, others kept
[10] = model FIG. 8, named factor removed, others kept
[11] = model FIG. 9, named factor removed

C/C(=C\c1ccc(C(=O)O)cc1)c1ccc2c(c1)C(C)(C)CCC2(C)C [TTNBP]
factor contribution (maximum expression of GATA2) [1, 4]: relatively low factor contribution

Oc1nc(-c2ccc(C(F)(F)F)cc2)nc2c1CSCC2 [XAV939, reference compound]
expression level of GATA2 [2, 5]: 992
expression level of CD31 ([2]; model FIG. 10, factor present): 6619
expression level of CD34 ([2]; model FIG. 10, factor present): 7050
expression level of CD44 ([2]; model FIG. 10, factor present): 838
expression level of FLI1 (Fill [sic]) ([2]; model FIG. 10, factor present): 13094
expression level of KDR ([2]; model FIG. 10, factor present): 36067
expression level of TAL1 ([2]; model FIG. 10, factor present): 1265
expression level of CD31 [2, 6]: 2181
expression level of CD34 [2, 6]: 5740
expression level of CD44 [2, 6]: 799
expression level of FLI1 (Fill [sic]) [2, 6]: 7237
expression level of GATA2 [2, 6]: 560
expression level of KDR [2, 6]: 31179
expression level of TAL1 [2, 6]: 982
factor contribution (maximum expression of GATA2) [1, 7]: 16

C[C@@H](N)[C@H]1CC[C@H](C(=O)Nc2ccncc2)CC1 [Y27632]
factor contribution (maximum expression of GATA2) [1, 4]: relatively low factor contribution

FGF2: FGFR agonist (e.g., recombinant human FGF2)
factor contribution in 2 of 3 models ([3]; across models): > 16
factor contribution (maximum expression of GATA2) [3]: 17
expression level of GATA2 [2, 8]: 583
expression level of CD31 ([2]; model FIG. 7, factor present): 879
expression level of CD44 ([2]; model FIG. 7, factor present): 576
expression level of FLI1 (Fill [sic]) ([2]; model FIG. 7, factor present): 3970
expression level of KDR ([2]; model FIG. 7, factor present): 33760
expression level of CD31 [2, 9]: 505
expression level of CD44 [2, 9]: 274
expression level of FLI1 (Fill [sic]) [2, 9]: 3374
expression level of GATA2 [2, 9]: 458
expression level of KDR [2, 9]: 23868
expression level of CD31 ([2]; model FIG. 8, factor present): 807
expression level of CD44 ([2]; model FIG. 8, factor present): 748
expression level of KDR ([2]; model FIG. 8, factor present): 40630
expression level of CD31 [2, 10]: 677
expression level of CD44 [2, 10]: 626
expression level of KDR [2, 10]: 29902
expression level of GATA2 [2, 5]: 992
expression level of CD31 ([2]; model FIG. 10, factor present): 6619
expression level of CD34 ([2]; model FIG. 10, factor present): 7050
expression level of CD44 ([2]; model FIG. 10, factor present): 838
expression level of FLI1 (Fill [sic]) ([2]; model FIG. 10, factor present): 13094
expression level of KDR ([2]; model FIG. 10, factor present): 36067
expression level of TAL1 ([2]; model FIG. 10, factor present): 1265
expression level of CD31 [2, 6]: 2002
expression level of CD34 [2, 6]: 6550
expression level of CD44 [2, 6]: 466
expression level of FLI1 (Fill [sic]) [2, 6]: 5406
expression level of GATA2 [2, 6]: 397
expression level of KDR [2, 6]: 22308
expression level of TAL1 [2, 6]: 866
factor contribution (maximum expression of GATA2) [1, 7]: 22
factor contribution (maximum expression of GATA2) [1, 4]: low factor contribution

Thymosin-β4: Actin binding protein (SDKPDMAEIEKFDKSKLKKTETQEKNPLPSKETIEQEKQAGES; UniProt P62328 2-44, looked up)
expression level of GATA2 ([2]; model FIG. 8 (VEGF, FGF2, Thymosin-β4), factor present): 633
expression level of CD44 ([2]; model FIG. 8, factor present): 748
expression level of KDR ([2]; model FIG. 8, factor present): 40660
expression level of CD44 [2, 10]: 626
expression level of GATA2 [2, 10]: 437
expression level of KDR [2, 10]: 37788
factor contribution (maximum expression of GATA2) [1, 4]: 16

VEGF
factor contribution (maximum expression of GATA2) [3]: 46
expression level of GATA2 [2, 8]: 583
expression level of CD31 ([2]; model FIG. 7, factor present): 879
expression level of CD34 ([2]; model FIG. 7, factor present): 2350
expression level of CD44 ([2]; model FIG. 7, factor present): 578
expression level of FLI1 (Fill [sic]) ([2]; model FIG. 7, factor present): 3971
expression level of KDR ([2]; model FIG. 7, factor present): 33751
expression level of TAL1 ([2]; model FIG. 7, factor present): 370
expression level of CD31 [2, 9]: 2
expression level of CD34 [2, 9]: 150
expression level of CD44 [2, 9]: 349
expression level of FLI1 (Fill [sic]) [2, 9]: 241
expression level of GATA2 [2, 9]: 236
expression level of KDR [2, 9]: 16856
expression level of TAL1 [2, 9]: 18
effect on expression of hemogenic endothelial genes analyzed (in words) ([2]; model FIG. 8): critical for increasing the expression of all hemogenic endothelial genes analyzed
expression level of CD31 ([2]; model FIG. 9, factor present): 869
expression level of CD34 ([2]; model FIG. 9, factor present): 2341
expression level of FLI1 (Fill [sic]) ([2]; model FIG. 9, factor present): 2292
expression level of KDR ([2]; model FIG. 9, factor present): 7518
expression level of CD31 [2, 11]: 262
expression level of CD34 [2, 11]: 868
expression level of FLI1 (Fill [sic]) [2, 11]: 974
expression level of KDR [2, 11]: 6209
effect on expression of hemogenic endothelial genes analyzed (in words) ([2]; model FIG. 10): critical for expression of all hemogenic endothelial genes analyzed
effect on expression of hemogenic endothelial genes analyzed (in words) ([2]; model FIG. 11): critical for expression of all hemogenic endothelial genes analyzed
effect towards GATA2 induction in 4 out of 5 models ([1]; across models): strong positive effect towards GATA2 induction
factor contribution (maximum expression of GATA2) ([1]; fifth model, FIG. 6, factors VPA, SCF, BMP4, EFG, FLT3L, Arginine, Retinoic Acid, VEGF): 22
factor contribution (maximum expression of GATA2) [1, 7]: 22
factor contribution (maximum expression of GATA2) [1, 4]: 25

heparin
factor contribution (maximum expression of GATA2) [1, 4]: relatively low factor contribution
